Assay results reported in ChEMBL document CHEMBL3124840, “Chemical composition of the bark of Tetrapterys mucronata and identification of acetylcholinesterase inhibitory constituents” (J Nat Prod, 2014).

Each compound was assayed against Acetylcholinesterase (Electrophorus electricus, UniProt O42275).
Acetylcholinesterase, sequence (O42275 whole entry): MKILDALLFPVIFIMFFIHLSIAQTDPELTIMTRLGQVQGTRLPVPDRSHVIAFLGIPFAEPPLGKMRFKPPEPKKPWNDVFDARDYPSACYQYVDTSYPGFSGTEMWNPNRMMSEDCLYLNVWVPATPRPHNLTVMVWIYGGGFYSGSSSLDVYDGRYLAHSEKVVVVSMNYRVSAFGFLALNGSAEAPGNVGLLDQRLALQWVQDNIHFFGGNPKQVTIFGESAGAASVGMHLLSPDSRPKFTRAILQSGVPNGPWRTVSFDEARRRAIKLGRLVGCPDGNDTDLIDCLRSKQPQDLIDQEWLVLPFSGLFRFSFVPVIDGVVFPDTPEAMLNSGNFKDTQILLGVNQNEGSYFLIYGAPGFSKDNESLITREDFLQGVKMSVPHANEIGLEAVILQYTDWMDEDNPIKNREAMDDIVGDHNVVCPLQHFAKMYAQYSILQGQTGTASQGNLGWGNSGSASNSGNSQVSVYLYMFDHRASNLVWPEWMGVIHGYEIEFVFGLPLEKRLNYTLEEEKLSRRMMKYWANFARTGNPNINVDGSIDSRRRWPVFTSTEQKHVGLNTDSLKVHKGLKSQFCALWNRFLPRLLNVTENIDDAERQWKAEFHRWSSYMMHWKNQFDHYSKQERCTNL
Description: Inhibition of Electric eel AChE assessed as amount of thiocholine released using acetylthiocholine iodide as substrate after 6 mins by Ellman's method

`CN(C)CCc1c[nH]c2ccc(O)cc12` [BUFOTENINE] and `COc1ccc2[nH]cc(CCN(C)C)c2c1` [MEBUFOTENIN] are within 1.5-fold of each other in IC50: 11.4 µM for the first, 14 µM for the second.

`CN(C)CCc1c(C(c2c[nH]c3ccccc23)C(O)CO)[nH]c2ccc(O)cc12` (stereo not given) and `NCCc1c(C(c2c[nH]c3ccccc23)C(O)CO)[nH]c2ccc(O)cc12` (stereo not given) are within 1.5-fold of each other in IC50: 11.7 µM for the first, 12.7 µM for the second.

`CNCCc1c[nH]c2ccc(OC)cc12` gave an IC50 of 12.5 µM.
